{
  "source": "patent US20130096119A1",
  "about": "“Isoquinolin-3-Ylurea Derivatives” (priority 2010, published 2013)",
  "data": [
    {"tested_on": "S. pneumoniae ATCC 49619", "assay": "Minimal inhibitory concentration (MIC) by microdilution method (CLSI M7-A7)", "format": "cell-based, Streptococcus pneumoniae", "conditions": "Streptococcus pneumoniae, ATCC49619, cation-adjusted Mueller-Hinton Broth supplemented with 3% (v/v) lysed horse blood", "method_in_brief": "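For S. pneumoniae, cation-adjusted Mueller-Hinton broth carried 3% (v/v) lysed horse blood; MICs (mg/l) were read by CLSI M7-A7 microdilution.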", "units": {"MIC": "µg/mL"}, "values": [
      {"compound": "CCNC(=O)Nc1cc2c(-c3ccnc(C)c3)ccc(Nc3cccnc3)c2cn1", "note": "[Example 229, 1-ethyl-3-[5-(2-methyl-pyridin-4-yl)-8-(pyridin-3-ylamino)-isoquinolin-3-yl]-urea]", "MIC": 0.25},
      {"compound": "CCNC(=O)Nc1cc2cccc(Nc3ccc(NC(C)=O)cc3)c2cn1", "note": "[Example 173, N-{4-[3-(3-ethyl-ureido)-isoquinolin-8-ylamino]-phenyl}-acetamide]", "MIC": 2},
      {"compound": "CCNC(=O)Nc1cc2cc(-c3cncnc3)cc(C)c2cn1", "note": "[Example 75, 1-ethyl-3-(8-methyl-6-pyrimidin-5-yl-isoquinolin-3-yl)-urea]", "MIC": 4},
      {"compound": "CCNC(=O)Nc1cc2c(-c3ccccc3)cccc2cn1", "note": "[Example 43, 1-ethyl-3-(5-phenyl-isoquinolin-3-yl)-urea]", "MIC": 8},
      {"compound": "CCNC(=O)Nc1cc2c(-c3ccc(O)cc3)ccc(C)c2cn1", "note": "[Example 2, 1-ethyl-3-[5-(4-hydroxy-phenyl)-8-methyl-isoquinolin-3-yl]-urea]", "MIC": 2},
      {"compound": "CCNC(=O)Nc1cc2cc(NC(=O)c3cccc(N(C)C)c3)cc(C)c2cn1", "note": "[Example 118, 3-dimethylamino-N-[3-(3-ethyl-ureido)-8-methyl-isoquinolin-6-yl]-benzamide]", "MIC": 0.06},
      {"compound": "CCNC(=O)Nc1cc2cc(-c3cccc(OC)c3)cc(C)c2cn1", "note": "[Example 76, 1-ethyl-3-[6-(3-methoxy-phenyl)-8-methyl-isoquinolin-3-yl]-urea]", "MIC": 1},
      {"compound": "Cc1ccc(-c2ccncc2)c2cc(NC(=O)NCCF)ncc12", "note": "[Example 138, 1-(2-fluoro-ethyl)-3-(8-methyl-5-pyridin-4-yl-isoquinolin-3-yl)-urea]", "MIC": 1},
      {"compound": "CCNC(=O)Nc1cc2c(Br)ccc(C)c2cn1", "note": "[Example 1, 1-(5-bromo-8-methyl-isoquinolin-3-yl)-3-ethyl-urea]", "MIC": 1},
      {"compound": "CCNC(=O)Nc1cc2cccc(Nc3cc(OC)ccn3)c2cn1.Cl", "note": "[Example 160, 1-ethyl-3-[8-(4-methoxy-pyridin-2-ylamino)-isoquinolin-3-yl]-urea hydrochloride]", "MIC": 2},
      {"compound": "CCNC(=O)Nc1cc2cc(-c3ccc(CC#N)cc3)cc(C)c2cn1", "note": "[Example 92, 1-[6-(4-(cyanomethyl)-phenyl)-8-methyl-isoquinolin-3-yl]-3-ethyl-urea]", "MIC": 0.25},
      {"compound": "CCNC(=O)Nc1cc2cccc(Nc3cccc(C(N)=O)c3)c2cn1.Cl", "note": "[Example 254, 3-[3-(3-ethyl-ureido)-isoquinolin-8-ylamino]-benzamide hydrochloride]", "MIC": 1},
      {"compound": "CCNC(=O)Nc1cc2c(-c3ccc(CO)cc3)ccc(C)c2cn1", "note": "[Example 34, 1-ethyl-3-[5-(4-hydroxymethyl-phenyl)-8-methyl-isoquinolin-3-yl]-urea]", "MIC": 2},
      {"compound": "CCNC(=O)Nc1cc2cc(-c3cccc(F)c3)cc(C)c2cn1", "note": "[Example 88, 1-ethyl-3-[6-(3-fluoro-phenyl)-8-methyl-isoquinolin-3-yl]-urea]", "MIC": 2},
      {"compound": "CCNC(=O)Nc1cc2cc(-c3cncc(SC)c3)cc(C)c2cn1", "note": "[Example 96, 1-ethyl-3-[8-methyl-6-(5-methylsulfanyl-pyridin-3-yl)-isoquinolin-3-yl]-urea]", "MIC": 2},
      {"compound": "CCNC(=O)Nc1cc2c(-c3ccncc3)ccc(Nc3cccc(C(=O)OC)c3)c2cn1", "note": "[Example 220, 3-[3-(3-ethyl-ureido)-5-pyridin-4-yl-isoquinolin-8-ylamino]-benzoic acid methyl ester]", "MIC": 16},
      {"compound": "CCNC(=O)Nc1cc2cccc(COc3cccnc3C)c2cn1.Cl", "note": "[Example 259, 1-ethyl-3-[8-(2-methyl-pyridin-3-yloxymethyl)-isoquinolin-3-yl]-urea hydrochloride]", "MIC": 4},
      {"compound": "CCNC(=O)Nc1cc2cc(-c3cccc(C(N)=O)c3)cc(C)c2cn1", "note": "[Example 31, 3-[3-(3-ethyl-ureido)-8-methyl-isoquinolin-6-yl]-benzamide]", "MIC": 1},
      {"compound": "CCNC(=O)Nc1cc2cc(NCc3cccc(-n4cncn4)c3)cc(C)c2cn1", "note": "[Example 187, 1-ethyl-3-[8-methyl-6-(3-[1,2,4]-triazol-1-yl-benzylamino)-isoquinolin-3-yl]-urea]", "MIC": 8},
      {"compound": "CCNC(=O)Nc1cc2cccc(Nc3ncccn3)c2cn1", "note": "[Example 152, 1-ethyl-3-[8-(pyrimidin-2-ylamino)-isoquinolin-3-yl]-urea]", "MIC": 4},
      {"compound": "CCNC(=O)Nc1cc2c(CNC)ccc(C)c2cn1", "note": "[Example 269, 1-ethyl-3-(8-methyl-5-methylaminomethyl-isoquinolin-3-yl)-urea]", "MIC": 8},
      {"compound": "CCNC(=O)Nc1cc2cccc(Nc3cccc(O)c3)c2cn1", "note": "[Example 170, 1-ethyl-3-[8-(3-hydroxy-phenylamino)-isoquinolin-3-yl]-urea]", "MIC": 2},
      {"compound": "CCNC(=O)Nc1cc2cccc(Nc3ccc(CC(=O)N(C)C)cc3)c2cn1.Cl", "note": "[Example 206, 2-{4-[3-(3-ethyl-ureido)-isoquinolin-8-ylamino]phenyl}-N,N-dimethyl-acetamide hydrochloride]", "MIC": 4},
      {"compound": "CCNC(=O)Nc1cc2c(-c3cccnc3)ccc(C)c2cn1", "note": "[Example 50, 1-ethyl-3-(8-methyl-5-pyridin-3-yl-isoquinolin-3-yl)-urea]", "MIC": 8},
      {"compound": "CCNC(=O)Nc1cc2cc(-c3ccc4c(c3)OCO4)cc(C)c2cn1", "note": "[Example 77, 1-(6-(benzo[1,3]dioxol-5-yl)-8-methyl-isoquinolin-3-yl)-3-ethyl-urea]", "MIC": 1},
      {"compound": "CCNC(=O)Nc1cc2cccc(Nc3ccc(CC(N)=O)cc3)c2cn1.Cl", "note": "[Example 253, 2-{4-[3-(3-ethyl-ureido)-isoquinolin-8-ylamino]-phenyl}-acetamide hydrochloride]", "MIC": 4},
      {"compound": "CCNC(=O)Nc1cc2cc(NC(=O)c3ccc(C(=O)OC)cc3)cc(C)c2cn1", "note": "[Example 193, N-[3-(3-ethyl-ureido)-8-methyl-isoquinolin-6-yl]terephthalamic acid methyl ester]", "MIC": 1},
      {"compound": "CCNC(=O)Nc1cc2cccc(CNc3ncccn3)c2cn1", "note": "[Example 304, 1-ethyl-3-[8-(pyrimidin-2-ylaminomethyl)-isoquinolin-3-yl]-urea]", "MIC": 4},
      {"compound": "CCNC(=O)Nc1cc2cc(-c3ccccc3C(=O)N(C)C)cc(C)c2cn1", "note": "[Example 23, 2-[3-(3-ethyl-ureido)-8-methyl-isoquinolin-6-yl]-N,N-dimethyl-benzamide]", "MIC": 8},
      {"compound": "CCNC(=O)Nc1cc2cccc(Nc3cccc(NC(C)=O)c3)c2cn1", "note": "[Example 172, N-{3-[3-(3-ethyl-ureido)-isoquinolin-8-ylamino]-phenyl}-acetamide]", "MIC": 2},
      {"compound": "CCNC(=O)Nc1cc2c(F)c(NCc3ccccc3)cc(C)c2cn1", "note": "[Example 57, 1-(6-benzylamino-5-fluoro-8-methyl-isoquinolin-3-yl)-3-ethyl-urea]", "MIC": 0.5},
      {"compound": "CCNC(=O)Nc1cc2cccc(Nc3cccc(C(=O)NC)c3)c2cn1.Cl", "note": "[Example 200, 3-[3-(3-ethyl-ureido)-isoquinolin-8-ylamino]-N-methyl-benzamide hydrochloride]", "MIC": 1},
      {"compound": "CCNC(=O)Nc1cc2c(F)c(-c3cccc(NC(C)=O)c3)cc(C)c2cn1", "note": "[Example 142, N-{3-[3-(3-ethyl-ureido)-5-fluoro-8-methyl-isoquinolin-6-yl]-phenyl}-acetamide]", "MIC": 0.25},
      {"compound": "CCNC(=O)Nc1cc2c(F)c(-c3cccnc3)cc(-c3ccc(C(=O)O)cc3)c2cn1", "note": "[Example 33, 4-[3-(3-ethyl-ureido)-5-fluoro-6-pyridin-3-yl-isoquinolin-8-yl]-benzoic acid]", "MIC": 1},
      {"compound": "CCNC(=O)Nc1cc2cc(NCc3ccc(-n4cnc(C)n4)cc3)cc(C)c2cn1.Cl", "note": "[Example 131, 1-ethyl-3-{8-methyl-6-[4-(3-methyl-[1,2,4]triazol-1-yl)-benzylamino]-isoquinolin-3-yl}-urea hydrochloride]", "MIC": 4},
      {"compound": "CCNC(=O)Nc1cc2cc(-c3ccncc3Cl)cc(C)c2cn1", "note": "[Example 98, 1-[6-(3-chloro-pyridin-4-yl)-8-methyl-isoquinolin-3-yl]-3-ethyl-urea]", "MIC": 4},
      {"compound": "CCNC(=O)Nc1cc2c(-c3ccc(CO)cc3)ccc(Nc3cccc(C(=O)O)c3)c2cn1", "note": "[Example 249, 3-[3-(3-ethyl-ureido)-5-(4-hydroxymethyl-phenyl)-isoquinolin-8-ylamino]-benzoic acid]", "MIC": 0.5},
      {"compound": "CCNC(=O)Nc1cc2cccc(Nc3ccc(C(N)=O)cn3)c2cn1.Cl", "note": "[Example 156, 6-[3-(3-ethyl-ureido)-isoquinolin-8-ylamino]-nicotinamide hydrochloride]", "MIC": 2},
      {"compound": "CCNC(=O)Nc1cc2cc(-c3cccc4[nH]ccc34)cc(C)c2cn1", "note": "[Example 90, 1-ethyl-3-[6-(1H-indol-4-yl)-8-methyl-isoquinolin-3-yl]-urea]", "MIC": 2},
      {"compound": "CCNC(=O)Nc1cc2cc(-c3ccc(CNC(C)=O)cc3)cc(C)c2cn1", "note": "[Example 81, N-{4-[3-(3-ethyl-ureido)-8-methyl-isoquinolin-6-yl]-benzyl}-acetamide]", "MIC": 0.5},
      {"compound": "CCNC(=O)Nc1cc2c(-c3ccncc3)ccc(Nc3cccc(OC)n3)c2cn1", "note": "[Example 217, 1-ethyl-3-[8-(6-methoxy-pyridin-2-ylamino)-5-pyridin-4-yl-isoquinolin-3-yl]-urea]", "MIC": 0.5},
      {"compound": "CCNC(=O)Nc1cc2cccc(Nc3ccc(CC(=O)NCc4ccccc4)cc3)c2cn1.Cl", "note": "[Example 208, N-benzyl-2-{4-[3-(3-ethyl-ureido)-isoquinolin-8-ylamino]-phenyl}-acetamide hydrochloride]", "MIC": 8},
      {"compound": "CCNC(=O)Nc1cc2c(CCC(N)=O)ccc(C)c2cn1", "note": "[Example 59, 3-[3-(3-ethyl-ureido)-8-methyl-isoquinolin-5-yl]-propionamide]", "MIC": 4},
      {"compound": "CCNC(=O)Nc1cc2cc(NC(=O)c3cncs3)cc(C)c2cn1", "note": "[Example 62, thiazole-5-carboxylic acid [3-(3-ethyl-ureido)-8-methyl-isoquinolin-6-yl]-amide]", "MIC": 0.25},
      {"compound": "CCNC(=O)Nc1cc2c(F)ccc(NC(=O)c3ccccc3)c2cn1", "note": "[Example 51, N-[3-(3-ethyl-ureido)-5-fluoro-isoquinolin-8-yl]-benzamide]", "MIC": 1},
      {"compound": "CCNC(=O)Nc1cc2c(-c3ccnc(C)c3)ccc(Nc3ccc(C)nc3)c2cn1", "note": "[Example 245, 1-ethyl-3-[5-(2-methyl-pyridin-4-yl)-8-(6-methyl-pyridin-3-ylamino)-isoquinolin-3-yl]urea]", "MIC": 0.5}
    ]}
  ]
}
